Several values for one entry are separate records, joined by “and”; a condition that tells them apart may be missing. Identical values can stand only once.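 A five-concentration, 48-hour dose response in 96-well plates underlies each endpoint, interpolated linearly between surrounding concentrations. The concentration for 50% growth inhibition is given as GI50.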 Activity calls are given as the source filed them. No stated cut-off is given here; in the data, active = GI50 up to about 1.1 µM and inactive = higher.
Assays:
Test in all cases: growth of human tumour cells (NCI), 48 h
[1] = system: LOX IMVI
[2] = system: NCI/ADR-RES
[3] = system: SK-MEL-28
[4] = system: OVCAR-4
[5] = system: UACC-62
[6] = system: DU-145
[7] = system: HCC 2998
[8] = system: OVCAR-8
[9] = system: HT-29
[10] = system: UO-31
[11] = system: TK-10
[12] = system: 786-0
[13] = system: SW-620
[14] = system: KM12
[15] = system: A498
[16] = system: SK-MEL-2
[17] = system: BT-549
[18] = system: Malme-3M
[19] = system: HOP-62

Measured: GI50

Cc1ccccc1C1OC1C(=O)c1ccccc1N (stereo unspecified)
inactive: [1] 34.9 µM | [2] 51.3 µM | [3] > 100 µM | [4] 47.5 µM | [5] 52.8 µM | [6] > 100 µM | [7] > 100 µM | [8] > 100 µM | [9] 45.3 µM | [10] 78.7 µM | [11] > 100 µM | [12] 59.4 µM | [13] 80.4 µM | [14] 39.7 µM | [15] > 100 µM | [16] 43.3 µM

COc1ccc(C2Oc3c(OC)cc(CCCO)cc3C2CO)cc1OC (stereo unspecified)
inactive: [2] 69 µM | [3] 74 µM | [4] > 100 µM | [5] 54.6 µM and 83.9 µM | [6] > 100 µM | [7] > 100 µM | [8] > 100 µM and 89.3 µM | [9] > 100 µM | [17] 96.2 µM and 50.7 µM | [11] > 100 µM | [18] > 100 µM and 50.7 µM | [12] > 100 µM | [19] > 100 µM | [13] > 100 µM | [14] > 100 µM and 79.3 µM | [16] 95.1 µM

CN(CCN1C(=O)c2cccc3cccc(c23)C1=O)CCN1C(=O)c2cccc3cccc(c23)C1=O
inactive: [1] 58.6 µM | [2] 13.5 µM | [3] > 100 µM | [4] > 100 µM | [5] 30 µM | [6] > 100 µM | [8] 5.55 µM | [9] > 100 µM | [17] 53.1 µM | [10] 5.81 µM | [11] 14.1 µM | [18] 6 µM | [12] 9.02 µM | [19] 12.5 µM | [14] > 100 µM | [16] 45.7 µM

Brc1ccc2c(c1)-c1nc3c(cc1CC2)CCc1ccc(Br)cc1-3
inactive: [1] > 100 µM | [2] > 100 µM | [3] > 100 µM | [4] > 100 µM | [7] > 100 µM | [8] > 100 µM | [17] > 100 µM | [10] > 100 µM | [11] > 100 µM | [18] > 100 µM | [12] > 100 µM | [19] > 100 µM | [13] > 100 µM | [14] > 100 µM | [15] > 100 µM | [16] > 100 µM

O=C(CCCN1CCC2(CC1)/C(=N/C1CCCCC1)NC(=O)N2c1ccccc1)c1ccc(F)cc1
inactive: [1] 14.2 µM | [2] 19.2 µM | [3] 18.6 µM | [4] 31.7 µM | [5] 22.3 µM | [6] 41.2 µM | [7] 20.6 µM | [8] 28.4 µM | [9] 17.9 µM | [11] 22.5 µM | [18] 12.7 µM | [12] 20.8 µM | [19] 20.9 µM | [13] > 100 µM | [14] 19.8 µM | [15] 15.2 µM | [16] 17.7 µM

COc1ccc(C(c2cc(OC)c(OC)c(OC)c2)N2C(=O)CCC2C(=O)O)cc1 (stereo unspecified)
inactive: [1] 66.8 µM | [2] > 100 µM | [3] 51.1 µM | [4] > 100 µM | [5] 51.3 µM | [6] > 100 µM | [7] 50.2 µM | [8] 41.8 µM | [9] 35.6 µM | [10] 56.4 µM | [11] > 100 µM | [18] 68.9 µM | [12] 73.1 µM | [19] > 100 µM | [13] 50.1 µM | [14] 35.6 µM | [15] 77.1 µM | [16] 46.8 µM

Cc1cccc2c(N)c3cccc(C(=O)NCC[N+](C)(C)Cc4ccccc4[N+](=O)[O-])c3nc12
inactive: [1] 26.2 µM | [2] 8.67 µM | [3] 29.7 µM | [4] 8.32 µM | [5] 8.05 µM | [6] 8.69 µM | [7] 9.06 µM | [8] 5.89 µM | [9] 5.22 µM | [10] 13.4 µM | [11] 6.62 µM | [18] 6.76 µM | [12] 4.22 µM | [19] 7.48 µM | [13] 7.6 µM | [14] 13.4 µM | [15] 8.97 µM | [16] 25.8 µM

COc1cc2oc(=O)cc(C)c2c(OC)c1OC(C)=O
inactive: [1] > 100 µM | [2] > 100 µM | [3] > 100 µM | [4] > 100 µM | [5] > 100 µM | [6] > 100 µM | [8] > 100 µM | [9] > 100 µM | [10] > 100 µM | [11] > 100 µM | [18] > 100 µM | [12] > 100 µM | [19] > 100 µM | [13] > 100 µM | [14] > 100 µM | [15] > 100 µM | [16] > 100 µM

O=C(O)CCC1(CCC(=O)O)CCCCCCCCC(CCC(=O)O)(CCC(=O)O)C(=O)C1=O
inactive: [1] > 100 µM | [2] > 100 µM | [3] > 100 µM | [4] > 100 µM | [5] > 100 µM | [6] > 100 µM | [7] > 100 µM | [8] > 100 µM | [9] > 100 µM | [11] > 100 µM | [18] > 100 µM | [12] > 100 µM | [19] > 100 µM | [13] > 100 µM | [14] > 100 µM | [16] > 100 µM

O=C1c2ccccc2C2=Cc3ccccc3C(O)N12 (stereo unspecified)
inactive: [1] 38.6 µM | [2] > 100 µM | [3] 37.1 µM | [4] > 100 µM | [5] 24.9 µM | [6] > 100 µM | [7] > 100 µM | [8] > 100 µM | [9] > 100 µM | [10] 18.1 µM | [11] > 100 µM | [18] > 100 µM | [12] > 100 µM | [19] > 100 µM | [13] > 100 µM | [14] > 100 µM | [15] > 100 µM | [16] > 100 µM

O=C(Nc1ccc(Cl)c(C(F)(F)F)c1)C(=O)c1c(O)c2ccccc2oc1=O
inactive: [1] > 100 µM | [2] > 100 µM | [3] > 100 µM | [4] > 100 µM | [5] > 100 µM | [7] > 100 µM | [8] > 100 µM | [9] > 100 µM | [17] > 100 µM | [10] > 100 µM | [11] > 100 µM | [18] > 100 µM | [12] > 100 µM | [19] > 100 µM | [13] > 100 µM | [14] > 100 µM | [15] > 100 µM | [16] > 100 µM

CC1C2CC(CC2N)C1(C)C (stereo unspecified)
inactive: [3] > 100 µM | [4] > 100 µM | [5] > 100 µM | [6] > 100 µM | [7] > 100 µM | [8] > 100 µM | [9] > 100 µM | [17] > 100 µM | [10] > 100 µM | [11] > 100 µM | [18] > 100 µM | [12] > 100 µM | [19] > 100 µM | [13] > 100 µM | [14] > 100 µM | [15] > 100 µM

COc1ccc(NC2Oc3cc4c(cc3C(c3cccc(OC)c3OC)C2C)OCO4)cc1 (stereo unspecified)
inactive: [1] 11.4 µM | [3] 16.3 µM | [5] 14.9 µM | [6] 4.16 µM | [7] 43.5 µM | [8] 5.13 µM | [9] 6.85 µM | [17] 13.5 µM | [10] 5.85 µM | [11] 6.4 µM | [18] 15.4 µM | [12] 7.96 µM | [19] 32.9 µM | [13] 5.83 µM | [14] 6.68 µM | [15] 10.9 µM | [16] 5.3 µM

O=c1c(-c2ccccc2F)coc2cc(F)ccc12
inactive: [1] 34.8 µM | [3] > 100 µM | [4] > 100 µM | [5] > 100 µM | [6] > 100 µM | [8] > 100 µM | [9] > 100 µM | [17] 99.1 µM | [10] > 100 µM | [11] > 100 µM | [12] 79.6 µM | [19] > 100 µM | [13] > 100 µM | [14] > 100 µM | [15] > 100 µM | [16] > 100 µM

N#CC1Nc2ccccc2[C@@H](O)C1O (stereo partly specified)
inactive: [1] > 100 µM | [2] > 100 µM | [3] > 100 µM | [4] > 100 µM | [5] > 100 µM | [6] > 100 µM | [7] > 100 µM | [8] > 100 µM | [9] > 100 µM | [11] > 100 µM | [18] > 100 µM | [12] > 100 µM | [19] > 100 µM | [13] > 100 µM | [14] > 100 µM | [16] > 100 µM

CCN(CC)CCCCC1CCN(CC(=O)N2c3ccccc3NC(=O)c3ccccc32)CC1
inactive: [3] > 100 µM | [4] > 100 µM | [5] > 100 µM | [7] > 100 µM | [8] > 100 µM | [9] 46.7 µM | [10] > 100 µM | [11] > 100 µM | [18] 81.5 µM | [12] > 100 µM | [19] > 100 µM | [13] > 100 µM | [14] > 100 µM | [15] > 100 µM | [16] > 100 µM
